Legend:
[1] = molecular target: Human immunodeficiency virus type 1 protease (Human immunodeficiency virus 1, UniProt Q72874); experiment: Compound was evaluated for binding affinity against HIV protease
MT4 = experiment: Compound was evaluated for the inhibition spread of HIV-1 in MT-4 human T-lymphoid cells infected with IIIB isolate; type: functional; settings: read-out: ID50 (the source's name)

Row | Structure (SMILES) | Ki [1] [µM] | IC50 (MT4) [µM]
1 | CCC[C@]1(O)CCO[C@H](C(=O)N[C@@H](Cc2ccccc2)[C@H](O)CN(CC(C)C)S(=O)(=O)c2ccc(OC)cc2)C1 | > 1 | 
2 | COc1ccc(S(=O)(=O)N(CC(C)C)C[C@@H](O)[C@H](Cc2ccccc2)NC(=O)[C@@H]2C[C@]3(CCCO3)CCO2)cc1 | 0.15 | 4.5
3 | COc1ccc(S(=O)(=O)N(CC(C)C)C[C@@H](O)[C@H](Cc2ccccc2)NC(=O)[C@@H]2C[C@@]3(CCCO3)CCO2)cc1 | 0.02 | 2.4
4 | COc1ccc(S(=O)(=O)N(CC(C)C)C[C@@H](O)[C@H](Cc2ccccc2)NC(=O)[C@H]2C[C@]3(CCCO3)CCO2)cc1 | > 2 | 
5 | COc1ccc(S(=O)(=O)N(CC(C)C)C[C@@H](O)[C@H](Cc2ccccc2)NC(=O)[C@H]2C[C@@]3(CCCO3)CCO2)cc1 | 0.4 | 9.1
6 | CCC[C@]1(O)CCO[C@@H](C(=O)N[C@@H](Cc2ccccc2)[C@H](O)CN(CC(C)C)S(=O)(=O)c2ccc(OC)cc2)C1 | 0.15 | 3.4
7 | COc1ccc(S(=O)(=O)N(CC(C)C)C[C@@H](O)[C@H](Cc2ccccc2)NC(=O)C2CC3(CCCC3)CCO2)cc1 (stereo not given in full) | 1.5 | 
8 | CCC[C@@]1(O)CCO[C@H](C(=O)N[C@@H](Cc2ccccc2)[C@H](O)CN(CC(C)C)S(=O)(=O)c2ccc(OC)cc2)C1 | 0.48 | > 10
9 | CCC[C@@]1(O)CCO[C@@H](C(=O)N[C@@H](Cc2ccccc2)[C@H](O)CN(CC(C)C)S(=O)(=O)c2ccc(OC)cc2)C1 | > 1 | 
10 | CC(C)(C)NC(=O)C1CC2CCCCC2CN1C[C@@H](O)[C@H](Cc1ccccc1)NC(=O)[C@H](CC(N)=O)NC(=O)c1ccc2ccccc2n1 (single isomer, unassigned) |  | 18

Reference: ChEMBL document CHEMBL1130798, “Structure based design: novel spirocyclic ethers as nonpeptidal P2-ligands for HIV protease inhibitors” (Bioorg Med Chem Lett, 1998)
